Source: PMC3558989 (Journal of Chemotherapy (Florence, Italy), 2013)

Assays:
MSSA 29213 = experiment: Effect of serum binding on MIC
in vitro = conditions: mouse
MRSA 1659 = experiment: Effect of serum on rate of kill; type: cell-based, S. aureus; conditions: for reduction in the viable count: 10 hours
S. aureus Smith = conditions: single oral dose of 1 mg/kg, mouse; cited from earlier work
[1] = system: 20 strains of staphylococci, including 10 MRSA; experiment: MIC with and without pulmonary surfactant, all strains; type: cell-based, S. aureus; conditions: for effect of pulmonary surfactant on MICs: in words
[2] = system: serum proteins of mouse, rat, dog and humans; experiment: Serum protein-binding assays, summary over methods and species; type: in vitro ADME, human
[3] = system: MSSA 29213, MRSA A6250596 (fluoroquinolone-resistant) and MRSA A7080336; experiment: Further combination study of AFN-1252; type: cell-based, S. aureus; conditions: three strains

With `Cc1c(CN(C)C(=O)/C=C/c2cnc3c(c2)CCC(=O)N3)oc2ccccc12` [AFN-1252] the “increase in MIC” value (MSSA 29213; 4% human serum albumin in CAMHB) was 8 fold, the “increase in MIC” value (MSSA 29213; 50% human serum vs serum-free CAMHB) was 8 fold and the “binding from MIC shift” value (MSSA 29213; 50% serum) was “approximately 90%”. For the same compound, the fraction unbound (in vitro) was 0.06 to 0.08, the “effect on viable count” value (MRSA 1659; 75% human serum, 8× MIC) was “bacteriostatic activity” and the “reduction in the viable count” value (MRSA 1659; 75% human serum, 64× MIC) was 2 log10. The “effect on viable count” value (MRSA 1659; 75% mouse serum, 64× MIC) was “bacteriostasis”, the “reduction in the viable count” value (MRSA 1659; absence of serum, 4× MIC) was 1–2 log10 and the “reduction in the viable count” value (MRSA 1659; absence of serum, 64× MIC) was 4 log. The “protection from lethal peritoneal infection” value (S. aureus Smith) was 100%, the “effect of pulmonary surfactant on MICs” value [1] was “not affected” and the “serum binding, equilibrium dialysis” value ([2]; all serum types, all concentrations) was “exceeded 95%”. For the same compound, the “binding to serum proteins” value ([2]; mouse, rat, dog and humans, overall) was roughly 95%.
In the case of `CO/N=C(\C(=O)N[C@@H]1C(=O)N2C(C(=O)O)=C(COC(N)=O)CS[C@H]12)c1ccco1` [Cefuroxime], the “interaction with AFN-1252” value [3] is reported as “did not detect any synergy or antagonism”.
In the case of `CCCCCCCCCC(=O)N[C@@H](Cc1c[nH]c2ccccc12)C(=O)N[C@H](CC(N)=O)C(=O)N[C@@H](CC(=O)O)C(=O)N[C@@H]1C(=O)NCC(=O)N[C@@H](CCCN)C(=O)N[C@@H](CC(=O)O)C(=O)N[C@H](C)C(=O)N[C@@H](CC(=O)O)C(=O)NCC(=O)N[C@H](CO)C(=O)N[C@@H]([C@H](C)CC(=O)O)C(=O)N[C@@H](CC(=O)c2ccccc2N)C(=O)O[C@@H]1C` [Daptomycin], the “elevation of MICs” value ([1]; presence of surfactant at 0·8 mg/ml) is reported as “at least 32 fold”.
In the case of `C[C@H]1COc2c(N3CCN(C)CC3)c(F)cc3c(=O)c(C(=O)O)cn1c23` [Levofloxacin], the “interaction with AFN-1252” value [3] is reported as “did not detect any synergy or antagonism”.
With `CN[C@H](CC(C)C)C(=O)N[C@H]1C(=O)N[C@@H](CC(N)=O)C(=O)N[C@H]2C(=O)N[C@H]3C(=O)N[C@H](C(=O)N[C@H](C(=O)O)c4cc(O)cc(O)c4-c4cc3ccc4O)[C@H](O)c3ccc(c(Cl)c3)Oc3cc2cc(c3O[C@@H]2O[C@H](CO)[C@@H](O)[C@H](O)[C@H]2O[C@H]2C[C@](C)(N)[C@H](O)[C@H](C)O2)Oc2ccc(cc2Cl)[C@H]1O` [Vancomycin] the “effect of pulmonary surfactant on MICs” value [1] was “generally unaffected”.
For `CC[C@H]1OC(=O)[C@H](C)[C@@H](O[C@H]2C[C@@](C)(OC)[C@@H](O)[C@H](C)O2)[C@H](C)[C@@H](O[C@@H]2O[C@H](C)C[C@H](N(C)C)[C@H]2O)[C@](C)(O)C[C@@H](C)CN(C)[C@H](C)[C@@H](O)[C@]1(C)O` [azithromycin], the “interaction with AFN-1252” value [3] was “did not detect any synergy or antagonism”.
With `CO/N=C(\C(=O)N[C@@H]1C(=O)N2C(C(=O)O)=C(CSc3nc(=O)c(=O)[nH]n3C)CS[C@H]12)c1csc(N)n1` [ceftriaxone] the “interaction with AFN-1252” value [3] was “did not detect any synergy or antagonism”.
For `COc1c(N2CCNC(C)C2)c(F)cc2c(=O)c(C(=O)O)cn(C3CC3)c12` (stereo not shown) [gatifloxacin], the “interaction with AFN-1252” value [3] was “did not detect any synergy or antagonism”.
With `C[C@@H](O)[C@H]1C(=O)N2C(C(=O)O)=C(S[C@@H]3CN[C@H](C(=O)N(C)C)C3)[C@H](C)[C@H]12` [meropenem] the “interaction with AFN-1252” value [3] was “did not detect any synergy or antagonism”.
In the case of penicillin, the “interaction with AFN-1252” value [3] is reported as “did not detect any synergy or antagonism”.
